Measured values from patent US9475841B2, “Melanoma antigen peptide and uses thereof” (INSERM (INSTITUT NATIONAL DE LA SANTE ET DE LA RECHERCHE …, priority 2012, dated 2016).
Residues, ends and D or L forms follow the SMILES beside them.

Legend:
[1] = test system: DRβ1*0101 restricted T cell clone 5F9; experiment: Minimal peptides recognized by CD4 T cell clone (peptide titration, TNF-α production); type: cell-based, human; conditions: 5F9 T cell clone; 13-mer peptides
Experimental: FIG. 5: Minimal peptides recognized by MELOE-1 specific CD4 T cell clones. MELOE-1 specific CD4 T cell clones were incubated with various concentrations of the indicated peptides during 5 hours in presence of Brefeldin A. TNF-α production was assessed by intracellular labeling with an anti-TNF-α specific antibody. The core peptide sequence is indicated in bold on each figure panel, and black circles illustrate the best fitting peptide.
Our T cell clones were reactive against 20-mer peptides that are probably not the exact peptides naturally processed. In order to formally identify the minimal recognized epitopes, we tested shorter peptides derived from each of the MELOE-1 recognized regions, chosen on the basis of the core peptide sequence supposed to be recognized by the T cell clones (indicated in bold on FIG. 5).
Three shorter peptides were better recognized by the DQ2-restricted 9C12 T cell clone, the shortest one being MELOE-17-19 (13-mer), recognized with an EC50 of 100 nM. The deletion of the two amino acids in C-term strongly reduces T cell clone recognition. […] Nonetheless all of these clones recognized a series of shortened peptides, thus we cannot formally assess that the shortest ones will be the exact peptides naturally presented on class II molecules.

[2] = test system: DQ2-restricted 9C12 T cell clone; conditions: 5 h
[3] = test system: DRβ1*1101 restricted T cell clone 1A5; conditions: 5 h
[4] = test system: MELOE-1 specific CD4 T cell clones; experiment: Processing of epitopes by autologous DC loaded with antigen; TNF-α production of T cell clones; type: cell-based, human
Experimental: FIG. 4: Class II epitopes are naturally processed from MELOE-1 whole antigen. Autologous DC, were loaded (before or after fixation) with MELOE-12-46 (1 μM) or, as a negative control, with Melan-A16-40L peptide (1 μM), and matured. T cell clones were then stimulated with DC at a ratio 1:1, during 5 h in presence of Brefeldin A, then stained with APC-conjugated anti-CD3 mAb, fixed with 4% paraformaldehyde, labeled with PE-conjugated anti-TNF-α mAb and analyzed by flow cytometry. Histograms illustrated the % of TNF-α producing cells among CD3 positive T cells.
Monocytes were purified from PBMC of healthy donors by a CD14-enrichment kit, according the recommendations of the supplier (Stem Cell, France). Immature dendritic cells (iDC) were generated by culturing monocytes in RPMI supplemented with 20 mg/mL of human albumin, 1000 IU/mL of GM-CSF and 200 IU/mL of IL-4 for 5 days. Then, iDC were pulsed with the whole MELOE-1 (1 μM) protein or the modified Melan-A16-40 A27L as negative control (1 μM) and matured with 20 ng/mL of TNF-α and 50 μg/mL of PolyI:C for 4 hours at 37° C. Finally they were fixed for 1 minute with PBS/0.015% glutaraldehyde. Alternatively, iDC were first matured, fixed and then pulsed with antigens at the same concentration.
Alternatively, MELOE-1 specific CD4+ T cell clones were stimulated by autologous MELOE-1 loaded and matured DC at a 1:1 ratio. […]

[5] = test system: DQ2-restricted T cell clone 4E2

Compound: SREQFLPSEGAAC [MELOE-112-24]
- recognition by T cell clone [1]: optimal shorter peptides

Compound: CC(C)C[C@H](NC(=O)[C@H](Cc1ccccc1)NC(=O)[C@H](CCC(N)=O)NC(=O)[C@H](CCC(=O)O)NC(=O)[C@H](CCCNC(=N)N)NC(=O)[C@H](CO)NC(=O)[C@@H](NC(=O)[C@H](C)NC(=O)[C@H](CCC(=O)O)NC(=O)[C@H](CC(=O)O)NC(=O)[C@@H]1CCCN1)[C@@H](C)O)C(=O)N1CCC[C@H]1C(=O)N[C@@H](CO)C(=O)O [MELOE-17-19, PDEATSREQFLPS] (H-PDEATSREQFLPS-OH; N-terminus and C-terminus assumed)
- EC50 [2]: 100 nM

Compound: CC(C)C[C@H](NC(=O)[C@H](Cc1ccccc1)NC(=O)[C@@H](N)CCC(N)=O)C(=O)N1CCC[C@H]1C(=O)N[C@@H](CO)C(=O)N[C@@H](CCC(=O)O)C(=O)NCC(=O)N[C@@H](C)C(=O)N[C@@H](C)C(=O)N[C@@H](CS)C(=O)N1CCC[C@H]1C(=O)N1CCC[C@H]1C(=O)N[C@@H](Cc1c[nH]c2ccccc12)C(=O)O [MELOE-115-27, QFLPSEGAACPPW] (H-QFLPSEGAACPPW-OH; N-terminus and C-terminus assumed)
- EC50 [3]: 100 nM

Compound: MSCVGYPDEATSREQFLPSEGAACPPWHPSERISSTLNDECWPASL [MELOE-1, MELOE-1 whole antigen (46 amino acids)]
- recognition by specific CD4 T cell clones of DC loaded after fixation ([4]; autologous DC loaded after DC fixation): only a weak recognition
- reactivity of the four T cell clones against loaded autologous DC ([4]; iDC loaded with 1 μM in serum-free medium, matured, then fixed): reactive

Compound: CC[C@H](C)[C@H](NC(=O)[C@H](CCCNC(=N)N)NC(=O)[C@@H](N)CCC(=O)O)C(=O)N[C@@H](CO)C(=O)N[C@@H](CO)C(=O)N[C@H](C(=O)N[C@@H](CC(C)C)C(=O)N[C@@H](CC(N)=O)C(=O)N[C@@H](CC(=O)O)C(=O)N[C@@H](CCC(=O)O)C(=O)N[C@@H](CS)C(=O)N[C@@H](Cc1c[nH]c2ccccc12)C(=O)N1CCC[C@H]1C(=O)N[C@@H](C)C(=O)O)[C@@H](C)O [31-44, ERISSTLNDECWPA] (H-ERISSTLNDECWPA-OH; N-terminus and C-terminus assumed)
- EC50 ([5]; 5 h): 100 nM

Compound: RISSTLNDECWPA [32-44]
- recognition by T cell clone ([5]; 4E2 T cell clone, compared with 31-44): recognized to a lower extent

Compound: TSREQFLPSEGAA [MELOE-111-23]
- recognition by T cell clone [1]: optimal shorter peptides
